Assay results as given in the NIST ThermoML archive (doi:10.1021/je301004f).

Columns and labels:
[1] = refractive index (Na D-line) (dimensionless); settings: 101.33 kPa, Liquid, Standard Abbe refractometry
[2] = for mass density / viscosity: 101.33 kPa, Liquid; for mass density: Vibrating tube method; for viscosity: Falling or rolling sphere viscometry

CCCCCCCC/C=C\CCCCCCCCn1cc[n+](C)c1.O=S(=O)([N-]S(=O)(=O)C(F)(F)F)C(F)(F)F
Settings	mass density [kg/m3]	refractive index	viscosity [mPa·s]
[1], 283.2 K	–	1.4576	–
[1], 293.2 K	–	1.4545	–
[1], 298.2 K	–	1.4528	–
[1], 303.2 K	–	1.4511	–
[1], 313.2 K	–	1.4479	–
[1], 323.2 K	–	1.4446	–
[1], 333.2 K	–	1.441	–
[1], 343.2 K	–	1.4379	–
[2], 273.15 K	1210.9	–	–
[2], 278.15 K	–	–	1005.3
[2], 283.15 K	1202.62	–	698.6
[2], 288.15 K	–	–	492.9
[2], 293.15 K	1194.49	–	355.7
[2], 298.15 K	–	–	263.5
[2], 303.15 K	1186.39	–	222.85
[2], 313.15 K	1178.38	–	133.94
[2], 323.15 K	1170.38	–	85.97
[2], 333.15 K	1162.47	–	58.09
[2], 343.15 K	1154.57	–	41.09

Settings	Normal melting temperature [°C]
[2], Crystal, DTA	-20.8
